Data as given in PubChem BioAssay (NCI).
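Interpolation was linear, between the two tested concentrations surrounding the appropriate level; five concentrations were tested over 48 hours in 96-well plates. Here, GI50 denotes the concentration required for 50% inhibition of growth. TGI: total growth inhibition.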

Experiments:
Experiment in all cases: NCI tumour cell line growth inhibition, 48 h
A549 NSCLC = test system: A549 NSCLC
SNB-19 CNS = test system: SNB-19 CNS
HCT-15 colon = test system: HCT-15 colon
SF-295 CNS = test system: SF-295 CNS
HOP-92 NSCLC = test system: HOP-92 NSCLC
T-47D breast = test system: T-47D breast
NCI-H460 lung = test system: NCI-H460 lung
RPMI-8226 leukemia = test system: RPMI-8226 leukemia
SF-268 CNS = test system: SF-268 CNS
U251 CNS = test system: U251 CNS

| SMILES | GI50 (A549 NSCLC) | TGI (A549 NSCLC) | GI50 (SNB-19 CNS) | TGI (SNB-19 CNS) | GI50 (HCT-15 colon) | TGI (HCT-15 colon) | GI50 (SF-295 CNS) | TGI (SF-295 CNS) | GI50 (HOP-92 NSCLC) | TGI (HOP-92 NSCLC) | GI50 (T-47D breast) | TGI (T-47D breast) | GI50 (NCI-H460 lung) | TGI (NCI-H460 lung) | GI50 (RPMI-8226 leukemia) | TGI (RPMI-8226 leukemia) | GI50 (SF-268 CNS) | TGI (SF-268 CNS) | GI50 (U251 CNS) | TGI (U251 CNS) |
| --- | --- | --- | --- | --- | --- | --- | --- | --- | --- | --- | --- | --- | --- | --- | --- | --- | --- | --- | --- | --- |
| C/C(=C(\c1ccc(OCCN2CCCCCC2)cc1)c1ccc(OC(=O)c2ccccc2)cc1)c1ccc(Cl)cc1 | 4.16 µM | 10.9 µM | 6.61 µM | 18.5 µM | 1.4 µM | 5.99 µM | 2.71 µM | 7.44 µM | 3.57 µM | 7.8 µM | 1.76 µM | 7.47 µM | 2.5 µM | 7.44 µM | 3.03 µM | 10.2 µM | 3.49 µM | 9.7 µM | 3.76 µM | 8.08 µM |
| COc1cccc(Nc2nc3ccccc3c3occc23)c1 | 6.01 µM | 22.4 µM | 12.9 µM | 25.8 µM | 13.2 µM | > 100 µM | 3.92 µM | 14.6 µM | 13 µM | 31.1 µM | 4.1 µM | 22.8 µM | 25.2 µM | > 100 µM | 15.9 µM | > 100 µM | 13.9 µM | 34.1 µM | 9.68 µM | 27.1 µM |
| CN1CCN(Cc2ccc(NC(=O)c3cncc(C#Cc4cnc(N)c5cccnc45)c3)cc2C(F)(F)F)CC1 | 1.35 µM | > 50 µM | 2.05 µM | > 50 µM | 1.85 µM | > 50 µM | 2.07 µM | > 50 µM | 0.148 µM | 1.16 µM | 0.36 µM | > 50 µM | 0.272 µM | > 50 µM | 0.603 µM | > 50 µM | 0.466 µM | > 50 µM | 0.233 µM | > 31.5 µM |
| CC[C@@H](C)/C=C(C)/C=C/C(=O)c1c(O)c(-c2ccc(O)cc2)cn(O)c1=O | 1.31 µM | 12 µM | 0.575 µM | 16.3 µM | 0.396 µM | 16.1 µM | 0.703 µM | 9.99 µM | 0.137 µM | 1.86 µM | 0.609 µM | 28.5 µM | 0.292 µM | 1.11 µM | 0.504 µM | 18 µM | 0.33 µM | 12.3 µM | 0.374 µM | 11.2 µM |
| C/C=C1/CC(C)C(C)(O)C(=O)OCC2C(O)CN3CCC(OC1=O)C23 (centres undefined) | – | > 100 µM | – | > 100 µM | – | > 100 µM | – | > 100 µM | – | > 100 µM | – | > 100 µM | – | > 100 µM | – | > 100 µM | – | > 100 µM | – | > 100 µM |
| O=C(NCC1CCCO1)c1ccc(NC2=C(Cl)C(=O)N(Cc3ccccc3)C2=O)cc1 (centres undefined) | 19.1 µM | 50.5 µM | 21.5 µM | 45.1 µM | 19 µM | 62.3 µM | 12.1 µM | 25 µM | 6.4 µM | 21.5 µM | 30.5 µM | > 100 µM | 15.5 µM | 46.5 µM | 3.36 µM | 12.7 µM | 13.2 µM | 45.4 µM | 18.6 µM | 40.7 µM |
| CC(=O)[C@H]1CCC/C=C/[C@@H]2C[C@H](O)C[C@H]2[C@H](O)/C=C/C(=O)O1 | 1.17 µM | > 100 µM | 1.64 µM | > 100 µM | 1.05 µM | > 44.7 µM | 4.33 µM | > 100 µM | 4.93 µM | > 100 µM | 1.17 µM | 3.63 µM | 2.67 µM | > 100 µM | 0.36 µM | – | 0.448 µM | > 100 µM | 0.913 µM | > 100 µM |
| COc1cc(C2c3cc4c(cc3C(OC(=O)C[n+]3ccccc3)C3COC(=O)C23)OCO4)cc(OC)c1OC (centres undefined) | < 0.0197 µM | > 100 µM | < 0.0265 µM | > 100 µM | < 0.0171 µM | > 100 µM | < 0.0164 µM | > 100 µM | < 0.013 µM | 2.74 µM | 41.2 µM | > 100 µM | < 0.0187 µM | > 100 µM | < 0.0203 µM | > 100 µM | < 0.0208 µM | > 100 µM | < 0.021 µM | > 100 µM |
| O=C(CCN1CCCCC1)N1CCc2c([nH]c3ccccc23)C1c1cccnc1 (centres undefined) | – | > 100 µM | – | > 100 µM | – | > 100 µM | – | > 100 µM | – | 66 µM | – | > 100 µM | – | > 100 µM | – | > 100 µM | – | > 87.9 µM | – | > 100 µM |
| C#CCN(c1ccc(C(=O)N[C@@H](CCC(=O)N[C@H](CCC(=O)O)C(=O)O)C(=O)O)cc1)C1CCc2cc3nc(CO)[nH]c(=O)c3cc21 (some centres undefined) | 5.41 µM | > 100 µM | > 73.5 µM | > 100 µM | > 29.9 µM | > 100 µM | 5.01 µM | > 72.3 µM | > 53.4 µM | > 100 µM | > 67 µM | > 100 µM | 5.11 µM | > 100 µM | 88 µM | > 100 µM | 5.94 µM | > 100 µM | > 78.4 µM | > 100 µM |
| Nc1ccccc1C(=O)CCC1C(=O)NC(=S)NC1=O | – | > 100 µM | – | > 100 µM | – | > 100 µM | – | > 100 µM | – | > 100 µM | – | > 100 µM | – | > 100 µM | – | > 100 µM | – | > 100 µM | – | > 100 µM |
| Cn1cc(-c2cnn3c(N)c(Br)c(C4CCCNC4)nc23)cn1 (centres undefined) | 17.3 µM | > 100 µM | 18.4 µM | > 100 µM | 14.2 µM | > 79.9 µM | 0.527 µM | > 44.4 µM | 5.51 µM | > 68.5 µM | 19.6 µM | > 100 µM | 6.54 µM | 30.7 µM | 4.7 µM | 27.2 µM | 15.2 µM | > 100 µM | 20.2 µM | > 100 µM |
